Read-outs that look alike come from different tables or passages of the source.
Legend:
[1] = tested on: Math1 enhancer and minimal promoter Luciferase reporter in HEK cells; assay: Math1 Luciferase reporter assay in HEK cells; format: cell-based, human
Description: A human embryonic kidney (HEK) cell line stably expressing a Luciferase gene controlled by an Math1 enhancer and minimal promoter was used in a high-throughput screen (HTS) of 144,000 small molecules to identify compounds that increase Math1 expression (i.e., transcription and/or translation). Such compounds can be used to increase the conversion of stem cells, progenitor cells, and support cells to or towards a hair cell. Screens to identify such compounds are described by Li et al., (U.S. Publication No. 2005/0287127) and Li et al., (U.S. application Ser. No. 11/953,797).
HEK cells stably expressing the Math1 Luciferase reporter were plated onto 384 well plates and cultured overnight in medium containing 10% fetal calf serum (FCS). Activation of the Math1 enhancer was measured by the increase in luminescence on a plate reader following addition of a luciferase detection agent. The assay was optimized for cell number, time of incubation, volume of medium, cell lysis reagent and luciferase reagent. Luminescence levels were compared in cells with the Math1-luciferase construct with and without retinoic acid (1 μM), and/or a luciferase construct with and without the Math1 enhancer and minimal promoter region.
To improve assay sensitivity, and reduce the coefficient of variation (CV), a more sensitive luciferase reagent (BriteLite luciferase reporter assay reagent, Perkin Elmer) was used, and Triton-X-100 was added to the lysis reagent to ensure complete lysis of the cells. Following these changes a CV of 4.2% was recorded. These conditions were used for all high-throughput screens. The luminescence threshold for a compound to be positive was defined as a 2-fold increase above the control (e.g., cells exposed to DMSO).
Cells were seeded on 384 well plates and allowed to attach overnight at 37° C. with 5% CO2 in the absence of growth factors. Math1 activation was measured by the increase in luminescence on a plate reader following addition of a luciferase detection reagent. Luminescence was assessed at 24, 48, and 72 hours. These conditions were used to screen 144,000 compounds contained in the small molecule libraries at Harvard University's Laboratory for Drug Discovery in Neurodegeneration (LDDN).
HTS were performed using HEK-Math1 cells seeded in 384 well plates. One compound was added per well using pin transfer. The final concentration of each compound was […]. Cell were incubated in the presence of a compound for 48 hours at 37° C. with 5% CO2. Cell lysates then were collected and bioluminescence determined. Luminescence values were compared normalized against DMSO.
About 20000 compounds were screened per week in 50 plates of 384 well with the aid of robotic systems (Beckman Biomek FX). Compounds were screened at an average final concentration of 0.7 μM (in 0.04% DMSO) with each plate containing 16 wells of 1 μM retinoic acid, as a positive control, and 16 wells of 0.04% DMSO, as a vehicle control. Percent activation of luminescence in the test compounds was determined for cells treated with the compounds against cells treated with DMSO.
Ten compounds, randomly selected from the group of 110 compounds identified in Example 2, were further evaluated, as follows. HEK cells were plated on 96 well plates at a density of 100000 cells per well. One day after plating, 0.1, 1, and 5 μM of each positive compound was added per well in a 10% fetal bovine serum (FBS) DMEM solution. Cells were then lysed 48 hours after addition of the compound and Math1 expression was analyzed using a luciferase reporter assay, as described above, and real-time PCR.
The half maximal inhibitory concentration (IC50) and median lethal dose or Lethal Dose, 50% (LD50) were determined for each of the compounds identified in Example 2 using standard laboratory techniques. IC50 is a measure of the effectiveness of a compound in inhibiting biological or biochemical function. LD50 is the amount of a compound required to kill half the members of a tested population.

[2] = LD50 (median lethal dose) determination; format: cell-based
Description: IC50 is a measure of the effectiveness of a compound in inhibiting biological or biochemical function. LD50 is the amount of a compound required to kill half the members of a tested population.

[3] = Homo sapiens, HEK293; read-out: IC50
[4] = Homo sapiens, HEK293; read-out: Maximum (Fold DMSO)

Compound | IC50 [1, 3] | maximal fold induction [1, 4] | LD50 [2] | IC50 ([1]; Homo sapiens, HEK293) | maximal fold induction ([1]; Homo sapiens, HEK293, read-out: Maximum (Fold DMSO))
Fc1ccc(-c2cnc(N3CCOCC3)nc2)cc1 [CP-0059642, 4-(5-(4-fluorophenyl)pyrimidin-2-yl)morpholine] | 1000 nM | 2.2 | >10 µM |  | 
COc1cccc(Nc2ncnc3[nH]cnc23)c1 [CP-0072720, N-(3-methoxyphenyl)-9H-purin-6-amine] | 3000 nM | 1.8 | >10 µM |  | 
Cc1ccc(COn2c(-c3ccccc3)nc3ccc([N+](=O)[O-])cc32)cc1 [CP-0000571, 1-(4-methylbenzyloxy)-6-nitro-2-phenyl-1H-benzo[d]imidazole] | 300 nM | 2 | >30 µM |  | 
O=C(c1cc(-c2ccc(Br)cc2)on1)N1CCOCC1 [CP-0075627, (5-(4-bromophenyl)isoxazol-3-yl)(morpholino)methanone] | 8000 nM | 2 | >10 µM |  | 
COc1cccc2c1OCC(C(=O)Nc1ccc(Cl)cc1Cl)=C2 [CP-0000928, N-(2,4-dichlorophenyl)-8-methoxy-2H-chromene-3-carboxamide] | 300 nM | 2 | >10 µM |  | 
Cc1cccc(-c2ccc3ccccc3n2)c1 [CP-0072092, 2-m-tolylquinoline] | 1000 nM | 1.7 | >10 µM |  | 
CC(=O)Nc1ccc2nc(NC(=O)c3ccco3)sc2c1 [CP-0105777, N-(6-acetamidobenzo[d]thiazol-2-yl)furan-2-carboxamide] | 300 nM | 2 | >10 µM |  | 
O=C(CSc1nc2ccccc2o1)Nc1ccccc1Cl [CP-0029300, 2-(benzo[d]oxazol-2-ylthio)-N-(2-chlorophenyl)acetamide] | 1600 nM | 2 | >10 µM |  | 
c1ccc(SCc2nc3ccccc3[nH]2)cc1 [CP-0080773, 2-(phenylthiomethyl)-1H-benzo[d]imidazole] | > 10000 nM | 2.2 | >10 µM |  | 
COc1ccc(Br)c(-c2nc(-c3cccs3)no2)c1 [CP-0104904, 5-(2-bromo-5-methoxyphenyl)-3-(thiophen-2-yl)-1,2,4-oxadiazole] | > 10000 nM | 2.2 | >10 µM |  | 
COc1ccc(-c2cn3ccsc3n2)cc1 [CP-0061401, 6-(4-methoxyphenyl) imidazo[2,1-b]thiazole] | 600 nM | 1.8 | >10 µM |  | 
O=C(c1ccc(-c2ccc(Br)cc2)o1)N1CCOCC1 [CP-0061777, (5-(4-bromophenyl)furan-2-yl)(morpholino)methanone] | > 10000 nM | 2.1 | >10 µM |  | 
Cc1cccc(Nc2nc(N)c(C(=O)C(C)C)s2)c1 [CP-0134381, 1-(4-amino-2-(m-tolylamino)thiazol-5-yl)-2-methylpropan-1-one] | 2000 nM | 2.2 | >10 µM |  | 
COc1ccc(-c2nc3ccc(Cl)cc3n2OCc2ccc(C)cc2)cc1 [CP-0000553, 6-chloro-2-(4-methoxyphenyl)-1-(4-methylbenzyloxy)-1H-benzo[d]imidazole] | 10 nM | 2 | >30 µM |  | 
CS(=O)(=O)n1nccc1-c1ccc(-c2ccc(F)cc2F)o1 [CP-0099289, 5-(5-(2,4-difluorophenyl)furan-2-yl)-1-(methylsulfonyl)-1H-pyrazole] | > 10000 nM | 1.6 | >10 µM |  | 
COc1cc(C)c2c(=O)cc(-c3ccccc3)oc2c1 [CP-0096433, 7-methoxy-5-methyl-2-phenyl-4H-chromen-4-one] | 3000 nM | 2 | >10 µM |  | 

Compound | IC50 [1, 3] | maximal fold induction [1, 4] | LD50 [2] | IC50 ([1]; Homo sapiens, HEK293) | maximal fold induction ([1]; Homo sapiens, HEK293, read-out: Maximum (Fold DMSO))
O=C(Nc1nc2ccc(Br)cc2s1)c1cccs1 [CP-0064917, N-(6-bromobenzo[d]thiazol-2-yl)thiophene-2-carboxamide] | > 10000 nM | 2 | >10 µM |  | 
Cc1ccccc1OCc1nc2ccccc2[nH]1 [CP-0109953, 2-(o-tolyloxymethyl)-1H-benzo[d]imidazole] | 100 nM | 1.8 | >10 µM |  | 
COc1ccc(COn2c(-c3ccc(OC)cc3)nc3ccc(Cl)cc32)cc1 [CP-0000557, 6-chloro-1-(4-methoxybenzyloxy)-2-(4-methoxyphenyl)-1H-benzo[d]imidazole] | 20 nM | 2.6 | 30 µM |  | 
CCn1ccc(C(=O)Nc2cc(Cl)ccc2Cl)n1 [CP-0070844, N-(2,5-dichlorophenyl)-1-ethyl-1H-pyrazole-3-carboxamide] | 2000 nM | 1.7 | >10 µM |  | 
O=C(NCC1CCCO1)c1sc2ccccc2c1Cl (stereo not drawn) [CP-0068577, 3-chloro-N-((tetrahydrofuran-2-yl)methyl)benzo[b]thio-phene-2-carboxamide] | 1000 nM | 1.6 | >10 µM |  | 
CC(=O)Nc1cc(-c2sc3ccc(Cl)cc3c2C)n[nH]1 [CP-0102404, N-(3-(5-chloro-3-methylbenzo[b]thiophen-2-yl)-1H-pyrazol-5-yl)acetamide] | > 10000 nM | 1.6 | >10 µM |  | 
COc1ccc(C2C=C(c3ccc(Cl)cc3)Nc3nc4ccccc4n32)cc1 (stereo not drawn) [CP-0050095, 2-(4-chlorophenyl)-4-(4-methoxyphenyl)-1,4-dihydrobenzo[4.5]imi-dazo[1,2-a]pyrimidine] |  |  | >10 µM | 1500 nM | 2.6
O=C(Nc1ccc(Cl)cn1)c1cccs1 [CP-0072156, N-(5-chloropyridin-2-yl)thiophene-2-carboxamide] | 2000 nM | 2 | >10 µM |  | 
Cn1c(COc2ccc(F)cc2)nc2ccccc21 [CP-0074806, 2-((4-fluorophenoxy)methyl)-1-methyl-1H-benzo[d]imidazole] | 700 nM | 1.8 | >10 µM |  | 
c1ccc(CCn2nnc3ccccc32)cc1 [CP-0070871, 1-phenethyl-1H-benzo[d][1,2,3]triazole] | 3000 nM | 2 | >10 µM |  | 
COc1ccccc1N1CCN(c2ccc3ccccc3n2)CC1 [CP-0087799, 2-(4-(2-methoxyphenyl)piperazin-1-yl)quinoline] | 1000 nM | 2.1 | >10 µM |  | 
COc1ccc(OCC(=O)Nc2nccs2)cc1 [CP-0063182, 2-(4-methoxyphenoxy)-N-(thiazol-2-yl)acetamide] | 200 nM | 1.7 | >10 µM |  | 
COc1ccccc1-c1nc(-c2ccc(C)cc2)no1 [CP-0067246, 5-(2-methoxyphenyl)-3-p-tolyl-1,2,4-oxadiazole] | 1800 nM | 1.5 | >10 µM |  | 
O=C(NCCSc1ccccc1)c1cncc(Br)c1 [CP-0089966, 5-bromo-N-(2-(phenylthio)ethyl) nicotinamide] | > 10000 nM | 2.2 | >10 µM |  | 
Cc1cc(NC(=O)c2ccc3c(c2)OCO3)no1 [CP-0065665, N-(5-methylisoxazol-3-yl)benzo[d][1,3]dioxole-5-carboxamide] | 800 nM | 1.7 | >10 µM |  | 
